Test results reported in patent publication US20240002470A1, “Method for separation and/or detection and/or in vitro quantification of infectious compounds in biological material” (priority 2020, published 2024).

B1: β2GPI: plasma glycoprotein called β2-glycoprotein I, grafted on beads as the reference (protein, UniProt P02749 20-345, looked up)
Beta-2-glycoprotein 1: GRTCPKPDDLPFSTVVPLKTFYEPGEEITYSCKPGYVSRGGMRKFICPLTGLWPINTLKCTPRVCPFAGILENGAVRYTTFEYPNTISFSCNTGFYLNGADSAKCTEEGKWSPELPVCAPIICPPPSIPTFATLRVYKPSAGNNSLYRDTAVFECLPQHAMFGNDTITCTTHGNWTKLPECREVKCPFPSRPDNGFVNYPAKPTLYYKDKATFGCHDGYSLDGPEEIECTKLGNWSAMPSCKASCKVPVKKATVVYQGERVKIQEKFKNGMLHGDKVSFFCKNKEKKCSYTEDAQCIDGTIEVPKCFKEHSSLAFWKTDASDVKPC
modifications: grafted on beads

Tests used:
Type in all cases: binding
[1] = tested on: ISAV virus (Infectious salmon anemia virus); experiment: Capture of ISAV virus on magnetic microbeads coated with pepβ2GPI, RT-PCR quantification; details: for ISAV copies: virus captured on coated beads from culture supernatant
Description: The virus used is the ISAV virus (Infectious salmon anemia virus), responsible for anemia in salmon, originating from a culture supernatant.
The microbeads, intended to fix the virus, which are used are magnetic microbeads sold by the company MERCK under the name “Estapor® super-paramagnetic microspheres” which have a diameter between […].
(§1) The pepβ2GPI were grafted onto the microbeads according to the supplier's recommendations. In summary, the microbeads are suspended in phosphate buffer at a pH of 6.0. The beads are then activated, for 15 minutes, in the presence of 1-ethyl-3-(3-Dimethylaminopropyl) carbodiimide and N-hydroxysuccinimide. After washing with HCl, 2 mM, the beads are suspended in a phosphate buffer at a pH of 7.5, containing the pepβ2GPI. The concentration of pepβ2GPI in this coupling buffer is 20 mg/L; the microbeads are incubated in the buffer with gentle and constant shaking at a temperature of 25° C. for 3 hours. The microbeads are then centrifuged at 1,500 rpm and the supernatant is removed; the centrifugation pellet is suspended in the same buffer as that used for the coupling of pepβ2GPI, which forms the suspension of microbeads coated with pepβ2GPI which we want to test.
(§2) One hundred microliters of viral culture supernatant to be studied are placed in an Eppendorf tube with 900 microliters of Tris buffer at a pH of 7.5 and 10 microliters of microbeads. The tubes are shaken horizontally to mix the microbeads well, and each tube is incubated at 37° C. or at room temperature (RT=22° C.) for 30 minutes. In each tube, the microbeads are then separated from the liquid phase by means of a magnet, placed externally against the wall of the tube, and the viral RNA is extracted. The beads are brought into contact with a viral lysis buffer, included in an RNA extraction kit: QIAamp RNA viral kit, sold by QIAGEN and the viral RNA is isolated according to the seller's recommendations.
The RNA is then transcribed into complementary DNA, in the presence of reverse transcriptase, according to the following protocol:
Finally, the complementary DNA (cDNA) is amplified by chain reaction using a polymerase and quantified according to the following protocol: […]

[2] = tested on: endogenous human retrovirus antigen (HERV), envelope protein of HERV-W; experiment: Capture of HERV antigen from serum on ELISA-type microtiter plates
Procedure: The desired compound is an endogenous human retrovirus antigen (HERV: human endogenous retrovirus). Their research was carried out on serum from patients with autoimmune pathologies as well as on serum from healthy donors.
The support used is a microtiter plate of the ELISA type, with 96 wells and flat bottom, sold by the company “DYNATECH”. Four samples of serum from healthy donors and four samples from patients with autoimmune disease were used.
The serum sample is diluted ten times in 50 mM Tris-HCl buffer, pH 7.6±0.05.
100 μl of this solution are placed at the bottom of each well of the microplate.
This is then incubated at +37° C. for 90 minutes. The liquid from each well is then aspirated. Then 300 to 400 μl of phosphate buffer containing 0.01 mole/I of sodium and disodium phosphates and 0.15 mole/I of sodium chloride and having a pH of 7.00±0.05 are introduced into each well.
It is left in contact with the support for 3 minutes and the buffer is aspirated; this washing operation is carried out three times.
Next, 100 μl of a specific murine monoclonal antibody solution directed against the envelope protein of the endogenous HERV-W retrovirus is added per well.
The plate is left at 37° C. for 60 minutes.
(§3) Following this incubation, the contents of the wells of the plate are aspirated. 300 to 400 μl of phosphate buffer, described above, are introduced into each well, and after a contact time of 3 minutes, the buffer is aspirated; this washing operation is carried out three times.
as §3, with “Then, 100 μL of a solution of a polyclonal antibody recognizing the murine antibodies are added per well. The plate is left at 37° C. for 60 minutes. Following” for “Following”, “six” for “three”
100 μl of a solution of o-phenylene diamine, 2HCl in a sodium citrate buffer are added per well. It is left to incubate for 30 minutes at room temperature, then the reaction is stopped by adding to each well 50 μl of 2N H2 SO4. The absorbance at 492 nm obtained at the end of the reaction is measured using a plate reader robot.
Results in the following table are expressed in P/2N, P corresponding to the average of the absorbances obtained for a given serum and N corresponding to the average of the absorbances obtained from healthy donors, multiplied by 2.

[3] = tested on: HSV virus (Herpes Simplex virus); experiment: Capture of HSV virus on magnetic microbeads coated with pepβ2GPI
Procedure: as §1, §2
The viruses tested are the HSV virus (Herpes Simplex virus) and the BVDV virus (Bovine viral Diarrhea Virus).
The same protocol as that described in example 1 was carried out.

S. aureus ATCC 6538 = experiment: Capture on magnetic microbeads coated with pepβ2GPI: C5 S. aureus ATCC 6538
Procedure: (§4) To test the interaction of microbeads coated with β2GPI and the peptides derived from them, with bacteria present in the blood, 1 ml of blood culture is taken from each sample and placed in a 15 ml tube. 20 μl of microbeads are added and each tube is incubated at 37° C. with horizontal shaking. The tubes are then placed in a magnetic field which retains the microbeads on the wall and the supernatant is removed. The microbeads are then washed twice with sterile PBS, of the same composition as previously indicated; the microbeads are then resuspended in 150 μl of BTS culture medium. Two methods for detecting bacteria captured by microbeads were used: culture on TS agar and PCR For the detection of the bacterial capture by culture, 50 μl of the suspension of microbeads thus obtained are taken and they are spread out in a Petri dish containing TS agar. Petri dishes are incubated in an oven at 37° C. for 24 hours. The bacteria that have grown on the agar were then counted.
(§5) The tested bacteria are: C3 E. coli ATCC 11105, C5 S. aureus ATCC 6538, H61 E. coli B6054, C1: E. coli ATCC 8739, H46: C. albicans 1 and H: 60 SCN
(§6) The same protocol and primers as those described in example 9 were carried out.

E. coli B6054 = experiment: Capture on magnetic microbeads coated with pepβ2GPI: H61 E. coli B6054
Procedure: as §4, §5, §6

[4] = serum 6s (patient with autoimmune pathology)
[5] = serum 45s (patient with autoimmune pathology)
[6] = serum 99s (patient with autoimmune pathology)
[7] = serum 100s (patient with autoimmune pathology)

| Molecule | % compared to β2GPI ([1]; ISAV copies captured relative to β2GPI beads) | ISAV copies [1] | P/2N [2, 4] | P/2N [2, 5] | P/2N [2, 6] | P/2N [2, 7] | P/2N ([2]; serum DS 45s (healthy donor)) | P/2N ([2]; serum DS 46s (healthy donor)) | P/2N ([2]; serum DS 60s (healthy donor)) | P/2N ([2]; serum DS 61s (healthy donor)) | Capture of HSV virus [3] | Capture of C5 S. aureus ATCC 6538 (S. aureus ATCC 6538) | Capture of H61 E. coli B6054 (E. coli B6054) |
| --- | --- | --- | --- | --- | --- | --- | --- | --- | --- | --- | --- | --- | --- |
| H-((SSLAFWK)2-K)2-K—NH2 [Peptide P11] | (140%) | 78 350 copies | 1.185 | 1.228 | 0.977 | 4.039 | 0.77 | 0.718 | 0.631 | 0.727 | 123% | 63% | 90% |
| B1 |  | 55 800 copies | 0.928 | 1.112 | 0.974 | 4.9 | 0.69 | 0.79 | 0.637 | 0.498 |  |  |  |
